Assay results taken from the NIST ThermoML archive (doi:10.1021/je0340912).
Where “and” joins values, the source holds several entries; their conditions need not be identical. Identical values can stand only once.

What was measured:
[1] = Liquid; for mass density: 101.33 kPa
[2] = excess molar enthalpy (molar enthalpy of mixing); xn = mol fraction of the nth substance listed; settings: 101.32 kPa, Liquid, Flow calorimetry

CCC(C)O (configuration not stated) [butan-2-ol]
[1]
Settings	mass density [kg/m3]	vapor or sublimation pressure [kPa]
298.15 K	802.4	–
372.14 K	–	100.5

CC(C)(C)O [2-methylpropan-2-ol]
[1]
Settings	mass density [kg/m3]	vapor or sublimation pressure [kPa]
303.15 K	775.5	–
355.13 K	–	100.6

C=C(C)CC(C)(C)C [2,4,4-trimethyl-1-pentene] + CC(C)(C)O
[2], 300.15 K
Settings	excess molar enthalpy [kcal/mol]
x2 = 0.0529	0.125
x2 = 0.0811	0.151
x2 = 0.1559	0.188
x2 = 0.2264	0.208
x2 = 0.2928	0.218
x2 = 0.3555	0.225
x2 = 0.4148	0.227
x2 = 0.471	0.228
x2 = 0.5241	0.226
x2 = 0.5242	0.225
x2 = 0.5747	0.222
x2 = 0.6229	0.216
x2 = 0.6687	0.207
x2 = 0.7124	0.195
x2 = 0.7541	0.18
x2 = 0.7939	0.161
x2 = 0.832	0.141
x2 = 0.8685	0.118
x2 = 0.9034	0.0915
x2 = 0.9369	0.0626
x2 = 0.9691	0.0326

C=C(C)CC(C)(C)C [2,4,4-trimethyl-1-pentene]
[1]
Settings	mass density [kg/m3]	vapor or sublimation pressure
298.15 K	711.3	–
374.34 K	–	101.4 kPa and 101.3 kPa

C=C(C)CC(C)(C)C [2,4,4-trimethyl-1-pentene] + CCC(C)O
[2], 298.15 K
Settings	excess molar enthalpy [kcal/mol]
x2 = 0.0544	0.13
x2 = 0.0832	0.159
x2 = 0.1597	0.202
x2 = 0.2314	0.227
x2 = 0.2987	0.243
x2 = 0.3621	0.251
x2 = 0.4217	0.252
x2 = 0.4781	0.249
x2 = 0.5313	0.241
x2 = 0.5818	0.229
x2 = 0.6296	0.213
x2 = 0.675	0.196
x2 = 0.7182	0.177
x2 = 0.7593	0.156
x2 = 0.7986	0.134
x2 = 0.836	0.112
x2 = 0.8717	0.0891
x2 = 0.9059	0.0665
x2 = 0.9386	0.0437
x2 = 0.9699	0.0219
